Measured values: ChEMBL document CHEMBL5727399, “Ectonucleotidase inhibitors and methods of use thereof” (2019)
Values joined by “and” are separate entries in the source; they are usually repeats but may differ in a detail not shown here. Equal values may be shown once.

Target: 5'-nucleotidase (Homo sapiens, UniProt P21589)
Experiment: The concentration of inorganic phosphate was determined using a phosphate standard curve.

Sequence of 5'-nucleotidase (P21589 whole entry): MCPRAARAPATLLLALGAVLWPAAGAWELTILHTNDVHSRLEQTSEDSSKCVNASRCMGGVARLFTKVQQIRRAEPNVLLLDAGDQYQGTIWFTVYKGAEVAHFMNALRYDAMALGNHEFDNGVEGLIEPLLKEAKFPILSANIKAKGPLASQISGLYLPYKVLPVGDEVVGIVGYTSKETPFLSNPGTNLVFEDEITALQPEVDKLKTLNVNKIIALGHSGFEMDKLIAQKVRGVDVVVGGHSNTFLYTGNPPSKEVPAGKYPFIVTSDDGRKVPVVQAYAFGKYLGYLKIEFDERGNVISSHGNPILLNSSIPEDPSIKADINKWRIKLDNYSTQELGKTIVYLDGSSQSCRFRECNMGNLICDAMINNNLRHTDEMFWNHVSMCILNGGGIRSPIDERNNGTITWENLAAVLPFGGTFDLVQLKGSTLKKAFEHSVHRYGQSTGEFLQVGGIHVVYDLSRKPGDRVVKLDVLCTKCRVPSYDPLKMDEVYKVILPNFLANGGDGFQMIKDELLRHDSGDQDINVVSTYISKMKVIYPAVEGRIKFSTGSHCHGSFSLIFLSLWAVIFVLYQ

SMILES	IC50
COC(=O)C(Cc1ccc(-c2ccccc2)cc1)(OC[C@H]1O[C@@H](n2cnc3c(N)nc(Cl)nc32)[C@@H](F)[C@@H]1O)C(=O)O (single isomer, unassigned)	2860 nM and 3430 nM
Nc1nc(Cl)nc2c1ncn2[C@H]1C[C@H](O)[C@@H](COC(C(=O)O)C(=O)O)O1	> 50000 nM
CCOC(=O)C(Cc1ccc(OC(F)(F)F)cc1)(OC[C@H]1O[C@@H](n2cnc3c(N)nc(Cl)nc32)[C@@H](F)[C@@H]1O)C(=O)O (some centres not stated)	718 nM
CCOC(=O)C(Cc1ccc(-c2ccccc2)cc1)(OC[C@H]1O[C@@H](n2cnc3c(N)nc(Cl)nc32)[C@@H](F)[C@@H]1O)C(=O)O (single isomer, unassigned)	7260 nM and 8260 nM
Nc1nc(Cl)nc2c1ncn2[C@@H]1O[C@H](COC(CC(=O)O)C(=O)O)[C@@H](O)[C@@H]1F (some centres not stated)	> 50000 nM
CCOC(=O)C(OC[C@H]1O[C@@H](n2cnc3c(N)nc(Cl)nc32)[C@@H](F)[C@@H]1O)P(=O)(O)O (single isomer, unassigned)	2790 nM and 8910 nM
N#Cc1ccc(CC(OC[C@H]2O[C@@H](n3cnc4c(N)nc(Cl)nc43)[C@@H](F)[C@@H]2O)(C(=O)O)C(=O)O)cc1F	887 nM
[N-]=[N+]=N[C@H]1[C@@H](O)[C@H](n2cnc3c(N)nc(Cl)nc32)O[C@@H]1COC(C(=O)O)C(=O)O	> 50000 nM
O=C(O)C(OC[C@H]1O[C@@H](n2cnc3c(NCc4ccccc4)nc(Cl)nc32)[C@@H](F)[C@@H]1O)C(=O)O	8780 nM
CNC(=O)C(OC[C@H]1O[C@@H](n2cnc3c(N)nc(Cl)nc32)[C@@H](F)[C@@H]1O)P(=O)(O)O (some centres not stated)	12000 nM
Nc1nc(Cl)nc2c1ncn2[C@@H]1O[C@H](COC(Cc2ccc(-c3ccccc3)cc2)(C(=O)O)C(=O)O)[C@@H](O)[C@@H]1F	29 nM
Nc1nc(Cl)nc2c1ncn2[C@@H]1O[C@H](COC(CCCCO)(C(=O)O)C(=O)O)[C@@H](O)[C@@H]1F	1890 nM
Nc1nc(Cl)nc2c1ncn2[C@@H]1O[C@H](COC(Cc2cnc(C(=O)O)s2)(C(=O)O)C(=O)O)[C@@H](O)[C@@H]1F	602 nM
N#CCC(OC[C@H]1O[C@@H](n2cnc3c(N)nc(Cl)nc32)[C@@H](F)[C@@H]1O)(C(=O)O)C(=O)O	1510 nM
N#Cc1cccc(CC(OC[C@H]2O[C@@H](n3cnc4c(N)nc(N=[N+]=[N-])nc43)[C@@H](F)[C@@H]2O)(C(=O)O)C(=O)O)c1	1280 nM
Nc1nc(Cl)nc2c1ncn2[C@@H]1O[C@H](COC(CC(=O)O)(C(=O)O)C(=O)O)[C@@H](O)[C@@H]1F	2560 nM
CCOC(=O)C(OC[C@H]1O[C@@H](n2cnc3c(NC(=O)OC(C)(C)C)nc(Cl)nc32)[C@@H](F)[C@@H]1O)P(=O)(O)O (single isomer, unassigned)	2470 nM and 2950 nM
